Here are results for two compounds from patent US11596623B2, “Methods for treating virus infection or proliferation” (HOWARD UNIVERSITY, priority 2018, dated 2023).

The test system of one data set is HEp-2 cells. As to the kind of experiment: Trypan blue exclusion cell viability. The data set is classed as cell-based. As to conditions: 24-hour treatment. How it is done: In order to assess whether the compounds are producing any toxicity that can led to the cell deaths, we evaluated the cell viability by the trypan blue exclusion method. As long-term inhibition of RACK1 expression has been reported to cell cycle arrest, we limited our experimental treatments to 24 h and evaluated the cell viability of almost full confluent cells after 24 h of compound treatment.
In table 2, the viability of cells was measured with Trypan blue exclusion assay in a Cellometer (Nexcelom, Lawrence, Mass.). The percentage survival of the compound treated cells was evaluated along with the DMSO treated cells. The values represent the mean±SE of three separate well based replicates.

In a further data set the test system is IRES (β-Globin). The experiment in a line: Dual-luciferase reporter assay, β-Globin control construct. The data set is classed as cell-based. How it is done: Dual-luciferase reporter constructs were generously provided from (Plank et al., 2013) and (Carvajal et al., 2016). In the plasmid constructs, renilla luciferase (Rluc) translation is cap-dependent, while the firefly luciferase (Flue) translation depends on HIV-1 IRES. The Fluc/Rluc ratio was measured in the presence or the absence of the compounds in HEK293T cells transfected with the dual-luciferase plasmid bearing either Beta-globin, HCV, HIV-1 gag, EMVC or HIV-1 ladder sequences. Cells get transfected with the plasmids using Lipofectamine 3000 Reagent, from Thermo Fisher Scientific. Then treated with RACK1 inhibitors and its analogs (SD-29, and SD-29-14) at different concentrations; 1 μM, 10 μM, and […]. Moreover, the cells were treated with Dimethyl sulfoxide (DMSO) as a vehicle control or left untreated. Luc-Pair™ Duo-Luciferase Assay Kit 2.0 Kit (Genecopoeia) was used to measure the luciferase activity. HEK293T cells were grown to reach no more than 90% confluent at the desired time of lysate preparation.
For measuring Fluc/Rluc ratio and bioluminescence, Both Renilla and Firefly substrates were added to the same wells containing respective plasmid constructs. After the described incubation period, luciferase activity was evaluated from bioluminescence images acquired by a Perkin Elmer IVIS Spectrum Imaging system immediately after adding luciferase substrates. The Spectral Un-mixing options integrated in the software was used to un-mix the respective luminescence from Renilla and Firefly. Bioluminescence intensity in each well was quantified in units of photons per second per centimeter squared per steradian (p/s/cm^2/sr) by drawing a polygonal region of interest over the signals in images using Living Image 3.0 software (Caliper Life Sciences).
Dual-luciferase reporter constructs were used to determine if the drugs targeting RACK1 affect IRES-mediated translation. Renilla luciferase (Rluc) translation dependent on cap and the firefly luciferase (Fluc) translation dependent on HIV-1 IRES were utilized. The Fluc/Rluc ratio was measured in the presence or the absence of the compounds in the HEK293T cells transfected with the dual-luciferase plasmid bearing the predicted IRES from HIV-1 driving a firefly luciferase reporter gene and a cap dependent renilla luciferase from the same construct. As a control, HCV IRES is used within the dual luciferase construct (instead of HIV-1) as a positive control as HCV is known to use IRES solely for translating its transcripts, while Beta-globin plasmid was used as a negative control. The dual-luciferase reporters, as used here, are previously reported where HIV-1 IRES were reported (Plank, T. D., J. T. Whitehurst, and J. S. Kieft, Cell type specificity and structural determinants of IRES activity from the 5′ leaders of different HIV-1 transcripts. Nucleic Acids Res, 2013. 41(13): p. 6698-714; Carvajal, F., et al., Structural domains within the HIV-1 mRNA and the ribosomal protein S25 influence cap-independent translation initiation. FEBS J, 2016. 283(13): p. 2508-27.) The cells were transfected with the plasmids using Lipofectamine, then treated with RACK1 inhibitors (SD-29 and SD29-14) at different concentrations (1, 10, and 50 μM). Control cells were treated with DMSO or left untreated. SV40 promoter produces a capped and poly-adenylated dicistronic message. Translation of the upstream cistron (renilla luciferase, RLUC) is cap dependent, whereas translation of the downstream cistron (firefly luciferase, FLUC) occurs cap independently. The dual luciferase constructs are depicted in FIG. 1A. IRES activity is measured by calculating the ratio of FLUC to RLUC light production (RLUs) (Plank et al., 2013).
A general note: In a reporter assay the amount or activity of a reporter protein is the signal.

In the case of `Nn1c(S)nnc1-c1cc(Cl)cc(Cl)c1` [SD29-14], the entries for the “HEp-2 Cell viability, Mean” value in the data set on HEp-2 cells (10 μM) and with HEp-2 cells (100 μM) were 97.5% and 93.7%, respectively. Further, the FLUC in the data set with IRES (β-Globin) (1 μM) was found to be 2.21E+04 p/s/cm^2/sr; with IRES (β-Globin) (10 μM), 2.72E+04 p/s/cm^2/sr; in the data set with IRES (β-Globin) (50 μM), 1.74E+04 p/s/cm^2/sr. In addition, the results for the “FLUC/RLUC Ratio” value in the data set with IRES (β-Globin) (1 μM), in the data set with IRES (β-Globin) (10 μM) and in the data set on IRES (β-Globin) (50 μM) were 0.067 ± 0.002, 0.062 ± 0.003 and 0.067 ± 0.004, respectively. The RLUC with IRES (β-Globin) (10 μM) came to 4.39E+05 p/s/cm^2/sr; with IRES (β-Globin) (50 μM) it was 2.62E+05 p/s/cm^2/sr.

Take `Nn1c(S)nnc1-c1ccc(F)cc1` [SD-29]: the “HEp-2 Cell viability, Mean” value in the data set with HEp-2 cells (10 μM) was 94.0%; in the data set on HEp-2 cells (100 μM), 92.7%. Further, the FLUC in the data set with IRES (β-Globin) (1 μM) worked out at 4.02E+04 p/s/cm^2/sr; in the data set with IRES (β-Globin) (10 μM), 3.52E+04 p/s/cm^2/sr; with IRES (β-Globin) (50 μM), 3.74E+04 p/s/cm^2/sr. For the same compound, the figures for the “FLUC/RLUC Ratio” value in the data set with IRES (β-Globin) (1 μM), with IRES (β-Globin) (10 μM) and with IRES (β-Globin) (50 μM) were 0.068 ± 0.002, 0.074 ± 0.006 and 0.093 ± 0.004, respectively. Further, the RLUC in the data set on IRES (β-Globin) (1 μM) is recorded as 5.82E+05 p/s/cm^2/sr; with IRES (β-Globin) (10 μM), 4.70E+05 p/s/cm^2/sr; in the data set with IRES (β-Globin) (50 μM), 4.01E+05 p/s/cm^2/sr.
